Assay results published in patent US20230085307A1, “PYRIDAZINONE COMPOUND AND HERBICIDE” (NISSAN CHEMICAL CORPORATION, priority 2019, published 2023).

Tests used:
[1] = test system: barnyard grass; assay: Test Example 3: herbicidal effect by foliage application, Wagner pot (Table 18, symbol H); format: in vivo, barnyard grass (Echinochloa crus-galli); settings: 320 g/ha
Procedure, shortened: (§1)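 Plants were sown in alluvial soil held under 0.1–0.5 cm standing water and grown 14 days in a greenhouse at 25–30 °C. An emulsifiable formulation, water-diluted to the set dose, was then sprayed onto the foliage, and effects were scored three weeks later using previously defined criteria.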

[2] = test system: Chinese sprangletop; assay: Test Example 3: herbicidal effect by foliage application, Wagner pot (Table 18, symbol D); format: in vivo, chinese sprangletop (Leptochloa chinensis); settings: 320 g/ha
Procedure, shortened: as §1

[3] = test system: rice flat sedge; assay: Test Example 3: herbicidal effect by foliage application, Wagner pot (Table 18, symbol E); format: in vivo, rice flat sedge (Cyperus iria); settings: 320 g/ha
Procedure, shortened: as §1

[4] = test system: southern crabgrass; assay: Test Example 4: herbicidal effect by soil treatment (Table 19, symbol F); format: in vivo, southern crabgrass (Digitaria ciliaris); settings: amount of applied herbicide 320 g/ha
Procedure, shortened: (§2)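 Step 1: sow seeds in sterilized diluvial soil, cover ~1.5 cm. Step 2: spray diluted emulsion onto soil surface at predetermined rate. Step 3: greenhouse, 25–30° C, three weeks. Step 4: grade effect on each plant by earlier criteria.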

[5] = test system: green foxtail; assay: Test Example 4: herbicidal effect by soil treatment (Table 19, symbol G); format: in vivo, green foxtail (Setaria viridis); settings: amount of applied herbicide 320 g/ha
Procedure, shortened: as §2

[6] = test system: barnyard grass; assay: Test Example 4: herbicidal effect by soil treatment (Table 19, symbol H); format: in vivo, barnyard grass (Echinochloa crus-galli); settings: amount of applied herbicide 320 g/ha
Procedure, shortened: as §2

[7] = test system: wild oat; assay: Test Example 4: herbicidal effect by soil treatment (Table 19, symbol I); format: in vivo, wild oat (Avena fatua); settings: amount of applied herbicide 320 g/ha
Procedure, shortened: as §2

[8] = test system: blackgrass; assay: Test Example 4: herbicidal effect by soil treatment (Table 19, symbol J); format: in vivo, blackgrass (Alopecurus myosuroides); settings: amount of applied herbicide 320 g/ha
Procedure, shortened: as §2

[9] = test system: Italian ryegrass; assay: Test Example 4: herbicidal effect by soil treatment (Table 19, symbol K); format: in vivo, Italian ryegrass (Lolium multiflorum); settings: amount of applied herbicide 320 g/ha
Procedure, shortened: as §2

[10] = test system: windgrass; assay: Test Example 4: herbicidal effect by soil treatment (Table 19, symbol L); format: in vivo, windgrass (Apera spica-venti); settings: amount of applied herbicide 320 g/ha
Procedure, shortened: as §2

[11] = test system: velvetleaf; assay: Test Example 4: herbicidal effect by soil treatment (Table 19, symbol M); format: in vivo, velvetleaf (Abutilon theophrasti); settings: amount of applied herbicide 320 g/ha
Procedure, shortened: as §2

[12] = test system: redroot pigweed; assay: Test Example 4: herbicidal effect by soil treatment (Table 19, symbol N); format: in vivo, redroot pigweed (Amaranthus retroflexus); settings: amount of applied herbicide 320 g/ha
Procedure, shortened: as §2

[13] = test system: lambsquarters; assay: Test Example 4: herbicidal effect by soil treatment (Table 19, symbol O); format: in vivo, lambsquarters (Chenopodium album); settings: amount of applied herbicide 320 g/ha
Procedure, shortened: as §2

[14] = test system: chickweed; assay: Test Example 4: herbicidal effect by soil treatment (Table 19, symbol P); format: in vivo, common chickweed (Stellaria media); settings: amount of applied herbicide 320 g/ha
Procedure, shortened: as §2

[15] = test system: persian speedwell; assay: Test Example 4: herbicidal effect by soil treatment (Table 19, symbol R); format: in vivo, Persian speedwell (Veronica persica); settings: amount of applied herbicide 320 g/ha
Procedure, shortened: as §2

[16] = test system: southern crabgrass; assay: Test Example 5: herbicidal effect by foliage application, plastic box (Table 20, symbol F); format: in vivo, southern crabgrass (Digitaria ciliaris); settings: 320 g/ha, foliage application after 14-day growth, evaluated three weeks after application
Procedure, shortened: (§3)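 Foliar spray test: emulsion formulation diluted in water to a set application rate, sprayed onto 14-day-old plants raised in diluvial soil at 25° C to 30° C under glass. Both herbicidal effect and crop effect rated visually three weeks later.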

[17] = test system: green foxtail; assay: Test Example 5: herbicidal effect by foliage application, plastic box (Table 20, symbol G); format: in vivo, green foxtail (Setaria viridis); settings: 320 g/ha, foliage application after 14-day growth, evaluated three weeks after application
Procedure, shortened: as §3

[18] = test system: barnyard grass; assay: Test Example 5: herbicidal effect by foliage application, plastic box (Table 20, symbol H); format: in vivo, barnyard grass (Echinochloa crus-galli); settings: 320 g/ha, foliage application after 14-day growth, evaluated three weeks after application
Procedure, shortened: as §3

[19] = test system: wild oat; assay: Test Example 5: herbicidal effect by foliage application, plastic box (Table 20, symbol I); format: in vivo, wild oat (Avena fatua); settings: 320 g/ha, foliage application after 14-day growth, evaluated three weeks after application
Procedure, shortened: as §3

[20] = test system: blackgrass; assay: Test Example 5: herbicidal effect by foliage application, plastic box (Table 20, symbol J); format: in vivo, blackgrass (Alopecurus myosuroides); settings: 320 g/ha, foliage application after 14-day growth, evaluated three weeks after application
Procedure, shortened: as §3

[21] = test system: Italian ryegrass; assay: Test Example 5: herbicidal effect by foliage application, plastic box (Table 20, symbol K); format: in vivo, Italian ryegrass (Lolium multiflorum); settings: 320 g/ha, foliage application after 14-day growth, evaluated three weeks after application
Procedure, shortened: as §3

[22] = test system: windgrass; assay: Test Example 5: herbicidal effect by foliage application, plastic box (Table 20, symbol L); format: in vivo, windgrass (Apera spica-venti); settings: 320 g/ha, foliage application after 14-day growth, evaluated three weeks after application
Procedure, shortened: as §3

[23] = test system: velvetleaf; assay: Test Example 5: herbicidal effect by foliage application, plastic box (Table 20, symbol M); format: in vivo, velvetleaf (Abutilon theophrasti); settings: 320 g/ha, foliage application after 14-day growth, evaluated three weeks after application
Procedure, shortened: as §3

[24] = test system: redroot pigweed; assay: Test Example 5: herbicidal effect by foliage application, plastic box (Table 20, symbol N); format: in vivo, redroot pigweed (Amaranthus retroflexus); settings: 320 g/ha, foliage application after 14-day growth, evaluated three weeks after application
Procedure, shortened: as §3

[25] = test system: lambsquarters; assay: Test Example 5: herbicidal effect by foliage application, plastic box (Table 20, symbol O); format: in vivo, lambsquarters (Chenopodium album); settings: 320 g/ha, foliage application after 14-day growth, evaluated three weeks after application
Procedure, shortened: as §3

[26] = test system: chickweed; assay: Test Example 5: herbicidal effect by foliage application, plastic box (Table 20, symbol P); format: in vivo, common chickweed (Stellaria media); settings: 320 g/ha, foliage application after 14-day growth, evaluated three weeks after application
Procedure, shortened: as §3

[27] = test system: persian speedwell; assay: Test Example 5: herbicidal effect by foliage application, plastic box (Table 20, symbol R); format: in vivo, Persian speedwell (Veronica persica); settings: 320 g/ha, foliage application after 14-day growth, evaluated three weeks after application
Procedure, shortened: as §3

CCCC(=O)Oc1c(C)nn(C)c(=O)c1-c1c(-c2ccc(F)cc2OC)sc2c(Cl)cccc12 [4-034]
herbicidal effect on barnyard grass (H) [1]: 4 (Herbicidal rate of 70% or more and less than 90%) | herbicidal effect on Chinese sprangletop (D) [2]: 5 (Herbicidal rate of 90% or more (almost completely withered)) | herbicidal effect on rice flat sedge (E) [3]: 4 (Herbicidal rate of 70% or more and less than 90%) | Herbicidal effect by soil treatment, F: southern crabgrass [4]: 3 (Herbicidal rate of 40% or more and less than 70%) | Herbicidal effect by soil treatment, G: green foxtail [5]: 4 (Herbicidal rate of 70% or more and less than 90%) | Herbicidal effect by soil treatment, H: barnyard grass [6]: 3 (Herbicidal rate of 40% or more and less than 70%) | Herbicidal effect by soil treatment, I: wild oat [7]: 0 (Herbicidal rate of 5% or less (almost no effect)) | Herbicidal effect by soil treatment, J: blackgrass [8]: 0 (Herbicidal rate of 5% or less (almost no effect)) | Herbicidal effect by soil treatment, K: Italian ryegrass [9]: 0 (Herbicidal rate of 5% or less (almost no effect)) | Herbicidal effect by soil treatment, L: windgrass [10]: 0 (Herbicidal rate of 5% or less (almost no effect)) | Herbicidal effect by soil treatment, M: velvetleaf [11]: 2 (Herbicidal rate of 20% or more and less than 40%) | Herbicidal effect by soil treatment, N: redroot pigweed [12]: 4 (Herbicidal rate of 70% or more and less than 90%) | Herbicidal effect by soil treatment, O: lambsquarters [13]: 3 (Herbicidal rate of 40% or more and less than 70%) | Herbicidal effect by soil treatment, P: chickweed [14]: 0 (Herbicidal rate of 5% or less (almost no effect)) | Herbicidal effect by soil treatment, R: persian speedwell [15]: 0 (Herbicidal rate of 5% or less (almost no effect)) | herbicidal effect on F: southern crabgrass (evaluation grade 0-5) [16]: 0 (Herbicidal rate of 5% or less (almost no effect)) | herbicidal effect on G: green foxtail (evaluation grade 0-5) [17]: 3 (Herbicidal rate of 40% or more and less than 70%) | herbicidal effect on H: barnyard grass (evaluation grade 0-5) [18]: 3 (Herbicidal rate of 40% or more and less than 70%) | herbicidal effect on I: wild oat (evaluation grade 0-5) [19]: 0 (Herbicidal rate of 5% or less (almost no effect)) | herbicidal effect on J: blackgrass (evaluation grade 0-5) [20]: 0 (Herbicidal rate of 5% or less (almost no effect)) | herbicidal effect on K: Italian ryegrass (evaluation grade 0-5) [21]: 0 (Herbicidal rate of 5% or less (almost no effect)) | herbicidal effect on L: windgrass (evaluation grade 0-5) [22]: 5 (Herbicidal rate of 90% or more (almost completely withered)) | herbicidal effect on M: velvetleaf (evaluation grade 0-5) [23]: 3 (Herbicidal rate of 40% or more and less than 70%) | herbicidal effect on N: redroot pigweed (evaluation grade 0-5) [24]: 1 (Herbicidal rate of 5% or more and less than 20%) | herbicidal effect on O: lambsquarters (evaluation grade 0-5) [25]: 0 (Herbicidal rate of 5% or less (almost no effect)) | herbicidal effect on P: chickweed (evaluation grade 0-5) [26]: 5 (Herbicidal rate of 90% or more (almost completely withered)) | herbicidal effect on R: persian speedwell (evaluation grade 0-5) [27]: 4 (Herbicidal rate of 70% or more and less than 90%)
